This is an account of results in ChEMBL document CHEMBL1770058, “MMP-13 selective alpha-sulfone hydroxamates: identification of selective P1' amides” (Bioorg Med Chem Lett, 2011).

For one data set, the target named is Neutrophil collagenase (Homo sapiens, UniProt P22894). Nature of the data set: Inhibition of human MMP8.
Data set [1] has as its target 72 kDa type IV collagenase (Homo sapiens, UniProt P08253). Nature of the data set: Inhibition of human MMP2.
The target in data set [2] is Matrix metalloproteinase-9 (Homo sapiens, UniProt P14780). Nature of the data set: Inhibition of human MMP9.
The target of the next data set is Collagenase 3 (Homo sapiens, UniProt P45452). Briefly: Inhibition of human MMP13.
Data set [3] can be described thus: Bioavailability in rat. Format: ADME, organism-based. Particulars: in vivo.
The nature of data set [4]: Half life in rat. Format: ADME, organism-based. The note with it: in vivo.
In the next data set the target is T1, Interstitial collagenase (Homo sapiens, UniProt P03956).
T1 sequence (P03956 whole entry): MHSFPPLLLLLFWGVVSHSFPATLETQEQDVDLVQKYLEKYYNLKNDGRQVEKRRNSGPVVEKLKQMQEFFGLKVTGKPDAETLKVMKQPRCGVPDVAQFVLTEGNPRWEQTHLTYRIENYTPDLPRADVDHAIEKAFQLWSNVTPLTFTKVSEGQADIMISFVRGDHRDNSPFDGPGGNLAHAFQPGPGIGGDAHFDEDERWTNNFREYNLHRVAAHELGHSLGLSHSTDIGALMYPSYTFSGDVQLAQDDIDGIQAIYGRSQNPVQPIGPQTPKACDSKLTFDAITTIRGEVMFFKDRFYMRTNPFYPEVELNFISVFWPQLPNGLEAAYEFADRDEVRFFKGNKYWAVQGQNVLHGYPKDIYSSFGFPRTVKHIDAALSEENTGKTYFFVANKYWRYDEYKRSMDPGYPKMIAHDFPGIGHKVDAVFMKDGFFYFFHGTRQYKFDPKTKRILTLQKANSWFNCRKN
Nature of the data set: Inhibition of human MMP1.

Data set [5] concerns the target Matrix metalloproteinase-14 (Homo sapiens, UniProt P50281). Nature of the data set: Inhibition of human MMP14.

Chain of Neutrophil collagenase (P22894 whole entry): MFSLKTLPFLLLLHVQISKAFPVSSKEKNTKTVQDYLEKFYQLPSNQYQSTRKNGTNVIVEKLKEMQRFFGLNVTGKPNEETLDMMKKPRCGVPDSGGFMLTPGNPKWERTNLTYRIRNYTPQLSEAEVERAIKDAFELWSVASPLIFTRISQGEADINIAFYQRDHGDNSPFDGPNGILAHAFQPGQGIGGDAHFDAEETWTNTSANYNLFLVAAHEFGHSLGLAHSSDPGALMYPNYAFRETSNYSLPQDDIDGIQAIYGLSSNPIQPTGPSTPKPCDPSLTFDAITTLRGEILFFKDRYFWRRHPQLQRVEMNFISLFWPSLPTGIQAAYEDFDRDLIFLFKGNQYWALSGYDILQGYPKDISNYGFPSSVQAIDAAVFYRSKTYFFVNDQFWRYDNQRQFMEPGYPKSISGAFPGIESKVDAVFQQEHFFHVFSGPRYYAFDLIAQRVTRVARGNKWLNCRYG
Chain of 72 kDa type IV collagenase (P08253 whole entry): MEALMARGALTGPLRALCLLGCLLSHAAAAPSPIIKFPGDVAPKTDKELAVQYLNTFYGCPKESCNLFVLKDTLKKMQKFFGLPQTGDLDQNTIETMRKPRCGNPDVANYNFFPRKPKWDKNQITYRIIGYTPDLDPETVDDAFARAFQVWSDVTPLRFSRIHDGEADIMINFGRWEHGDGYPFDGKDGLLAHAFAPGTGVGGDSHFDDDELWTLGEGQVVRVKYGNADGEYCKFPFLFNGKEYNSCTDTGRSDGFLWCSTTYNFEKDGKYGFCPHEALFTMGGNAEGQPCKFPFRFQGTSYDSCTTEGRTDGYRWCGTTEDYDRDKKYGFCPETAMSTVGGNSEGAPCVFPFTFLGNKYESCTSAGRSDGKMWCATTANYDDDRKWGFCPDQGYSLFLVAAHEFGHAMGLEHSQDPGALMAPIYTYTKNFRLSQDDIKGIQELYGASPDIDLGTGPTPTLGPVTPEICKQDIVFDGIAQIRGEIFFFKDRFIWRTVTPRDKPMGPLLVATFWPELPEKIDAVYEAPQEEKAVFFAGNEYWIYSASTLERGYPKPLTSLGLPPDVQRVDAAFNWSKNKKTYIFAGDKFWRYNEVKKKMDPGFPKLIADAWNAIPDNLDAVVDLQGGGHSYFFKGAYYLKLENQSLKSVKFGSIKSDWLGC
Chain of Matrix metalloproteinase-9 (P14780 whole entry): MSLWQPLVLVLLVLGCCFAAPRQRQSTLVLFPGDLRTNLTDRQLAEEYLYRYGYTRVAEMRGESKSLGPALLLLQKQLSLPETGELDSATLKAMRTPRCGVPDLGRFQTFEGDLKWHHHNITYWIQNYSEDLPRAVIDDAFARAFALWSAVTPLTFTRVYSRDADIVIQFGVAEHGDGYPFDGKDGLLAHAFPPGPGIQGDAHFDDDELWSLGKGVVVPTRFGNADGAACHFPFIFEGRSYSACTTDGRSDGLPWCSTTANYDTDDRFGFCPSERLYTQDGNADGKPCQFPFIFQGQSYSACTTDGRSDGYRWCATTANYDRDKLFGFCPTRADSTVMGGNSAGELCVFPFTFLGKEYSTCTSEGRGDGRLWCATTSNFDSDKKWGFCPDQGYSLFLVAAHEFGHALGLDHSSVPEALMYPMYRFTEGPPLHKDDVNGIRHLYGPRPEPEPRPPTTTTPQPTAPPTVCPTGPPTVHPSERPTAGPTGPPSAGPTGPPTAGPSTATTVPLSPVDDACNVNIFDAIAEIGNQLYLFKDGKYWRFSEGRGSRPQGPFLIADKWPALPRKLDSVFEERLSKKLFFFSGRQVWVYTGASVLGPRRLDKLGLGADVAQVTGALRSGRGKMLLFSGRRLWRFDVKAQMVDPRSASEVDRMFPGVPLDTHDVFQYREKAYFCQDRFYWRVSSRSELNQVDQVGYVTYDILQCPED

As for `CN(C)c1ccc(C(=O)C2CCN(c3ccc(S(=O)(=O)C4(C(=O)NO)CCOCC4)cc3)CC2)cc1`, the IC50 against Neutrophil collagenase was over 10000 nM; in data set [1], 4000 nM; in data set [2], over 10000 nM; on Collagenase 3 it was 8 nM.
Take `O=C(CCCOc1ccc(S(=O)(=O)C2(C(=O)NO)CCOCC2)cc1)N1CCCCC1`: the IC50 against Neutrophil collagenase was 800 nM; in data set [1], 170 nM; in data set [2] it was 670 nM; at Collagenase 3 it was 1.2 nM.
Turning to `CN(C)c1ccc(C(=O)NCCCOc2ccc(S(=O)(=O)C3(C(=O)NO)CCOCC3)cc2)cc1`, the IC50 against Neutrophil collagenase came to 1000 nM; in data set [1], 1100 nM; against Collagenase 3 it was 2 nM.
Take `CN(C(=O)CCCOc1ccc(S(=O)(=O)C2(C(=O)NO)CCOCC2)cc1)c1ccc(OC(F)(F)F)cc1`: the half-inhibitory concentration (IC50) on Neutrophil collagenase stood at 49 nM; in data set [1] it was 270 nM; in data set [2] it was 380 nM; against Collagenase 3 it was 3.3 nM.
Consider `O=C(NCCCOc1ccc(S(=O)(=O)C2(C(=O)NO)CCOCC2)cc1)C1CCCCC1`, for which the IC50 at Neutrophil collagenase was 3100 nM; against Collagenase 3 it was 8.2 nM.
`CN(C)c1ccc(NC(=O)CCCCOc2ccc(S(=O)(=O)C3(C(=O)NO)CCOCC3)cc2)cc1` had an IC50 on Neutrophil collagenase of 2.6 nM.
Turning to `Cc1ccc(C(=O)NCCCOc2ccc(S(=O)(=O)C3(C(=O)NO)CCOCC3)cc2)c(C)c1`, the figures for the IC50 against Neutrophil collagenase and on Collagenase 3 were 700 nM and 8 nM, respectively.
With `O=C(CCCOc1ccc(S(=O)(=O)C2(C(=O)NO)CCOCC2)cc1)Nc1ccc(OC(F)(F)F)cc1`, the values for the IC50 (against Neutrophil collagenase; in data set [1]) were 6.7 nM and 11 nM, respectively.
Regarding `COc1ccc(OCCCCOc2ccc(S(=O)(=O)C3(C(=O)NO)CCOCC3)cc2)cc1`, 67 nM corresponded to half-maximal inhibition at Neutrophil collagenase (IC50).
For the molecule `COc1ccc(NC(=O)CCCOc2ccc(S(=O)(=O)C3(C(=O)NO)CCOCC3)cc2)cc1`, the IC50 on Neutrophil collagenase came out at 31 nM; in data set [1] it was 2.5 nM; in data set [2] it was 23 nM; on Collagenase 3, 0.3 nM.
Take `CN(C)c1ccc(C(=O)CCOc2ccc(S(=O)(=O)C3(C(=O)NO)CCOCC3)cc2)cc1`: the IC50 came out at 120 nM at Neutrophil collagenase, 16 nM in data set [1] and 0.9 nM on Collagenase 3.
`CCCC(C)(C)C(=O)NCCCOc1ccc(S(=O)(=O)C2(C(=O)NO)CCOCC2)cc1`: the values for the IC50 on Neutrophil collagenase and against Collagenase 3 were 1200 nM and 30 nM, respectively.
In the case of `CN(C)c1ccc(C(=O)CCCOc2ccc(S(=O)(=O)C3(C(=O)NO)CCOCC3)cc2)cc1`, the IC50 against Neutrophil collagenase worked out at 170 nM.
For `CN(C)c1ccc(NC(=O)CCCOc2ccc(S(=O)(=O)C3(C(=O)NO)CCOCC3)cc2)cc1`, the values for the IC50 (against Neutrophil collagenase; in data set [1]) were 100 nM and 10 nM, respectively.
Consider `CN(C)c1ccc(C(=O)CCCCOc2ccc(S(=O)(=O)C3(C(=O)NO)CCOCC3)cc2)cc1`, for which the IC50 amounted to 140 nM against Neutrophil collagenase, 35 nM in data set [1], 1100 nM in data set [2] and 0.4 nM against Collagenase 3.
On Neutrophil collagenase, `COc1ccc(C(=O)NCCCOc2ccc(S(=O)(=O)C3(C(=O)NO)CCOCC3)cc2)cc1` registered an IC50 of 900 nM. The bioavailability in data set [3] worked out at 1.5%. Moreover, the half-life in data set [4] was 34.8 min.
With `C#CCN1CCC(C(=O)NO)(S(=O)(=O)c2ccc(Sc3ccccc3)cc2)CC1`, the IC50 was over 5000 nM at Interstitial collagenase and 8 nM in data set [5].
For `O=C(NCCCOc1ccc(S(=O)(=O)C2(C(=O)NO)CCOCC2)cc1)c1ccc(OC(F)(F)F)cc1`, the half-inhibitory concentration (IC50) against Neutrophil collagenase worked out at 140 nM; in data set [1], 360 nM; in data set [2], 2200 nM; against Collagenase 3 it was 0.66 nM.
